What all share (format): in vivo
Data set [1] relates to Cabbage Looper (Trichoplusia ni, TRIPNI). The data set can be described thus: Bioassays on Cabbage Looper (CL), 128-well diet tray assay. To be noted: Trichoplusia ni. The gist of the method:
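Second-instar larvae (1–5 per well) placed on artificial diet surface-treated with 50 μg/cm^2 test molecule applied in 90:10 acetone-water and dried. Held at 25° C., 14:10 light-dark, for five to seven days. Percent mortality scored per well and averaged over eight wells.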

Data set [2] relates to Beet Armyworm (Spodoptera exigua, LAPHEG). The data set can be described thus: Bioassays on Beet Armyworm (BAW), 128-well diet tray assay. To be noted: Spodoptera exigua. Summed up:
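Percent larval mortality, averaged across eight wells, scored after five to seven days at 25° C. under 14:10 light-dark. Each well held one to five second instars feeding on diet dosed at 50 μg/cm^2 with compound from 90:10 acetone-water, solvent dried off.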

Data set [3] concerns Yellow Fever Mosquito (Aedes aegypti, AEDSAE). The settings on record: for YFM rating: Table ABC / ABC-DP rating. The gist of the method:
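Rating-scale grades reflect larval mortality scored per well after 3 days at room temperature under non-evaporative lids. Larvae (~1 day old, hatched overnight in liver-powder water) were added to six daughter plates per compound, prepared from a 4000 ppm DMSO stock diluted in 90:10 water/acetone.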

[4] abbreviates: Cabbage Looper, rating class, read-out: CL.
[5] abbreviates: Beet Armyworm, rating class, read-out: BAW.
Where [6] appears, read: Yellow Fever Mosquito, rating class.
Where [7] appears, read: Cabbage Looper, Table ABC / ABC-DP rating, read-out: CL rating.
Where [8] appears, read: Beet Armyworm, Table ABC / ABC-DP rating, read-out: BAW rating.
[9] abbreviates: Table ABC: Biological Results, species CL, read-out: CL.
[10] abbreviates: Table ABC: Biological Results, species BAW, read-out: BAW.
The mark [11] stands for this setting: Table ABC: Biological Results, species YFM.

Like-named read-outs stand apart in the source and are kept apart here.

For the molecule `O=C(Nc1ccc(F)c(NC(=O)C(F)(F)F)c1F)c1cc(NC(=O)[C@H]2[C@H](c3cc(Cl)c(Cl)c(Cl)c3)C2(Cl)Cl)ccc1F` [F1526, 5-((1R,3R)-2,2-Dichloro-3-(3,4,5-trichlorophenyl)cyclopropane-1-carboxamido)-N-(2,4-difluoro-3-(2,2,2-trifluoroacetamido)phenyl)-2-fluorobenzamide], the pest or weed control at 50 µg/cm2 in data set [1] (setting [4]) and in data set [2] (setting [5]) was 50 to 100% in each case. In data set [3] (setting [6]), the YFM result is “A (80–100)”.
For the molecule `CC(=O)N(C)NC(=O)c1cc(NC(=O)[C@H]2[C@H](c3cc(Cl)cc(Cl)c3)C2(Cl)Cl)ccc1Cl` (relative stereo) [F2522, trans-N-(3-(2-Acetyl-2-methylhydrazine-1-carbonyl)-4-chlorophenyl)-2,2-dichloro-3-(3,5-dichlorophenyl)cyclopropane-1-carboxamide], the pest or weed control at 50 µg/cm2 in data set [1] (setting [7]) and in data set [2] (setting [8]) was 50 to 100% throughout. In addition, the YFM rating result in data set [3] (Yellow Fever Mosquito) was “A (80–100)”.
For the molecule `CC(=O)Nc1ccc(NC(=O)c2cc(NC(=O)[C@H]3[C@H](c4ccc(F)c(Cl)c4)C3(Cl)Cl)cc(F)c2Cl)cc1` (relative stereo) [F1154, trans-N-(4-Acetamidophenyl)-2-chloro-5-(2,2-dichloro-3-(3-chloro-4-fluorophenyl)cyclopropane-1-carboxamido)-3-fluorobenzamide], the pest or weed control at 50 µg/cm2 in data set [1] (setting [9]) and in data set [2] (setting [10]) was 50 to 100% in each case. The YFM result in data set [3] (setting [11]) is “A (80–100)”.
On to `O=C(NCC(F)(F)F)c1cc(NC(=O)C2C(c3cc(Br)cc(S(F)(F)(F)(F)F)c3)C2(Cl)Cl)ccc1Cl` (stereo not drawn) [F2009, cis-5-(3-(3-Bromo-5-(pentafluoro-λ^6-sulfanyl)phenyl)-2,2-dichiorocyclopropane-1-carboxamido)-2-chloro-N-(2,2,2-trifluoroethyl)benzamide], for which the pest or weed control at 50 µg/cm2 in data set [1] (setting [7]) and in data set [2] (setting [8]) was 50 to 100% throughout. Also, the YFM rating result in data set [3] (Yellow Fever Mosquito) was “A (80–100)”.
Regarding `N#CCC(=O)Nc1c(F)ccc(NC(=O)c2cc(NC(=O)[C@H]3[C@H](c4ccc(F)c(C(F)(F)F)c4)C3(Cl)Cl)ccc2Cl)c1F` [F1369, 2-Chloro-N-(3-(2-cyanoacetamido)-2,4-difluorophenyl)-5-((1R,3R)-2,2-dichloro-3-(4-fluoro-3-(trifluoromethyl)phenyl)cyclopropane-1-carboxamido)benzamide], the pest or weed control at 50 µg/cm2 in data set [1] (setting [9]) and in data set [2] (setting [10]) was 50 to 100% each time. Besides, in data set [3] (setting [11]), the YFM entry was “A (80–100)”.
As to `O=C(CCC(F)(F)F)Nc1c(F)ccc(NC(=O)c2cc(NC(=O)[C@H]3[C@H](c4ccc(F)c(C(F)(F)F)c4)C3(Cl)Cl)ccc2Cl)c1F` [F1800, 2-Chloro-5-((1R,3R)-2,2-dichloro-3-(4-fluoro-3-(trifluoromethyl)phenyl)cyclopropane-1-carboxamido)-N-(2,4-difluoro-3-(4,4,4-trifluorobutanamido)phenyl)benzamide], the pest or weed control at 50 µg/cm2 in data set [1] (setting [7]) and in data set [2] (setting [8]) was 50 to 100% each time. The YFM rating result in data set [3] (Yellow Fever Mosquito) is “A (80–100)”.
As for `O=C(Nc1ccc(F)c(NC(=O)C2CCCO2)c1F)c1cc(NC(=O)[C@H]2[C@H](c3ccc(Cl)c(C(F)(F)F)c3)C2(Cl)Cl)ccc1Cl` (stereo partly drawn) [F1661, N-(3-(2-Chloro-5-((1R,3R)-2,2-dichloro-3-(4-chloro-3-(trifluoromethyl)phenyl)cyclopropane-1-carboxamido)benzamido)-2,6-difluorophenyl)tetrahydrofuran-2-carboxamide], the pest or weed control at 50 µg/cm2 in data set [1] (setting [4]) and in data set [2] (setting [5]) was 50 to 100% in each case. Besides, the YFM entry in data set [3] (setting [6]) was “A (80–100)”.
On to `CC(C)(C)OC(=O)Nc1c(F)ccc(NC(=O)c2cc(NC(=O)[C@H]3[C@H](c4cc(Cl)cc(Cl)c4)C3(F)F)ccc2Cl)c1F` (relative stereo) [F1070, trans-tert-Butyl (3-(2-chloro-5-(3-(3,5-dichlorophenyl)-2,2-difluorocyclopropane-1-carboxamido)benzamido)-2,6-difluorophenyl)carbamate], for which the pest or weed control at 50 µg/cm2 in data set [1] (setting [9]) and in data set [2] (setting [10]) was 50 to 100% throughout. For the same molecule, the YFM result in data set [3] (setting [11]) is on record as “A (80–100)”.
On to `O=C(Nc1ccc(F)cc1F)c1cc(NC(=O)[C@H]2[C@H](c3cccc(S(F)(F)(F)(F)F)c3)C2(Cl)Cl)ccc1Cl` (relative stereo) [F1090, trans-2-Chloro-5-(2,2-dichloro-3-(3-(pentafluoro-λ^6-sulfanyl)phenyl)cyclopropane-1-carboxamido)-N-(2,4-difluorophenyl)benzamide], for which the pest or weed control at 50 µg/cm2 in data set [1] (setting [9]) and in data set [2] (setting [10]) was 50 to 100% in each case. The YFM result in data set [3] (setting [11]) is recorded as “A (80–100)”.
Take `CCOC(C)C(=O)Nc1c(F)ccc(NC(=O)c2cc(NC(=O)[C@H]3[C@H](c4cc(Cl)c(Cl)c(Cl)c4)C3(Cl)Cl)ccc2Cl)c1F` (stereo partly drawn) [F1645, 2-Chloro-5-((1R,3R)-2,2-dichloro-3-(3,4,5-trichlorophenyl)cyclopropane-1-carboxamido)-N-(3-(2-ethoxypropanamido)-2,4-difluorophenyl)benzamide]: the pest or weed control at 50 µg/cm2 in data set [1] (setting [4]) and in data set [2] (setting [5]) was 50 to 100% throughout. The YFM entry in data set [3] (setting [6]) is listed as “A (80–100)”.
Regarding `CC(=O)NCCCNC(=O)c1cc(NC(=O)[C@H]2[C@H](c3cc(Cl)cc(Cl)c3)C2(Cl)Cl)ccc1Cl` (relative stereo) [F2067, trans-N-(3-Acetamidopropyl)-2-chloro-5-(2,2-dichloro-3-(3,5-dichlorophenyl)cyclopropane-1-carboxamido)benzamide], the pest or weed control at 50 µg/cm2 in data set [1] (setting [7]) and in data set [2] (setting [8]) was 50 to 100% each time. The YFM rating entry in data set [3] (Yellow Fever Mosquito) was “A (80–100)”.
As to `O=C(Nc1ccc(F)c(NC(=O)[C@H]2CCCO2)c1F)c1cc(NC(=O)[C@H]2[C@H](c3ccc(F)c(C(F)(F)F)c3)C2(Cl)Cl)ccc1Cl` [F1691, (R)—N-(3-(2-Chloro-5-((1R,3R)-2,2-dichloro-3-(4-fluoro-3-(trifluoromethyl)phenyl)cyclopropane-1-carboxamido)benzamido)-2,6-difluorophenyl)tetrahydrofuran-2-carboxamide], the pest or weed control at 50 µg/cm2 in data set [1] (setting [4]) and in data set [2] (setting [5]) was 50 to 100% in each case. The YFM entry in data set [3] (setting [6]) is “B (More than 0 – Less than 80)”.
`O=C(Nc1ccc(F)c(NC(=O)C(Cl)Cl)c1F)c1cc(NC(=O)[C@H]2[C@H](c3ccc(F)c(C(F)(F)F)c3)C2(Cl)Cl)ccc1Cl` [F1174, 2-Chloro-5-((1R,3R)-2,2-dichloro-3-(4-fluoro-3-(trifluoromethyl)phenyl)cyclopropane-1-carboxamido)-N-(3-(2,2-dichloroacetamido)-2,4-difluorophenyl)benzamide]: the pest or weed control at 50 µg/cm2 in data set [1] (setting [9]) and in data set [2] (setting [10]) was 50 to 100% throughout. In data set [3] (setting [11]), the YFM result is listed as “A (80–100)”.
In the case of `O=C(NN=Cc1ccccc1)c1cc(NC(=O)C2C(c3cc(Cl)cc(Cl)c3)C2(Cl)Cl)ccc1Cl` (stereo not drawn) [F3001, trans-N-(3-(2-Benzylidenehydrazine-1-carbonyl)-4-chiorophenyl)-2,2-dichloro-3-(3,5-dichlorophenyl)cyclopropane-1-carboxamide], the mortality at 50 µg/cm2 in data set [1] (168 h, second instar larvae, 50 μg/cm^2 of test molecule on artificial diet, 25° C., five to seven days, average of eight wells, read-out: CL % Control (or Mortality) rating) fell in the range of 50 to 100%; in data set [2] (168 h, second instar larvae, 50 μg/cm^2 of test molecule on artificial diet, 25° C., five to seven days, average of eight wells, read-out: BAW % Control (or Mortality) rating), 50 to 100%. Besides, the pest or weed control at 50 µg/cm2 in data set [1] (setting [7]) and in data set [2] (setting [8]) was 50 to 100% each time. In addition, the YFM rating entry in data set [3] (Yellow Fever Mosquito) is given as “A (80–100)”. Further, in data set [3] (about 1 day-old larvae, 4000 ppm master solution diluted with 90:10 water/acetone, 15 μL per well plus 220 μL larval mixture, 3 days, mortality), the “YFM % Control (or Mortality) rating” value is “A (80–100)”.
Regarding `COc1c(F)cc(NC(=O)[C@H]2[C@H](c3ccc(F)c(Cl)c3)C2(Cl)Cl)cc1C(=O)NCC(F)(F)C(F)(F)F` (relative stereo) [F2060, trans-5-(2,2-Dichloro-3-(3-chloro-4-fluorophenyl)cyclopropane-1-carboxamido)-3-fluoro-2-methoxy-N-(2,2,3,3,3-pentafluoropropyl)benzamide], the pest or weed control at 50 µg/cm2 in data set [1] (setting [7]) and in data set [2] (setting [8]) was 50 to 100% each time. Further, the YFM rating entry in data set [3] (Yellow Fever Mosquito) was “A (80–100)”.
Consider `O=C(Nc1ccc(F)cc1F)c1cc(NC(=O)[C@H]2[C@H](c3cc(Cl)cc(S(F)(F)(F)(F)F)c3)C2(Cl)Cl)ccc1Cl` (relative stereo) [F1232, trans-2-chloro-5-(2,2-dichloro-3-(3-chloro-5-(pentafluoro-λ^6-sulfanyl)phenyl)cyclopropane-1-carboxamido)-N-(2,4-difluorophenyl)benzamide], for which the pest or weed control at 50 µg/cm2 in data set [1] (setting [9]) and in data set [2] (setting [10]) was 50 to 100% each time. For the same molecule, the YFM entry in data set [3] (setting [11]) is “A (80–100)”.

By mortality is commonly meant the share of the test organisms that died.

The values are drawn from patent US20250228239A1, “MOLECULES HAVING PESTICIDAL UTILITY, AND INTERMEDIATES, COMPOSITIONS, AND PROCESSES, RELATED THERETO” (priority 2024, published 2025).
